Test results reported in PubChem BioAssay (NCI).
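GI50: concentration for 50% inhibition of growth. Definition used: TGI = concentration required for complete inhibition of growth.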

Tests used:
Experiment in all cases: growth of human tumour cells (NCI), 384-well format
786-0 renal = system: 786-0 renal
A498 renal = system: A498 renal
A549 NSCLC = system: A549 NSCLC
ACHN renal = system: ACHN renal
BT-549 breast = system: BT-549 breast
CAKI-1 renal = system: CAKI-1 renal
CCRF-CEM leukemia = system: CCRF-CEM leukemia
COLO 205 colon = system: COLO 205 colon
DU-145 prostate = system: DU-145 prostate
HCC-2998 colon = system: HCC-2998 colon
HCT-116 colon = system: HCT-116 colon
HCT-15 colon = system: HCT-15 colon
HL-60(TB) leukemia = system: HL-60(TB) leukemia
HOP-62 NSCLC = system: HOP-62 NSCLC
HOP-92 NSCLC = system: HOP-92 NSCLC
HT29 colon = system: HT29 colon
IGROV1 ovarian = system: IGROV1 ovarian
K-562 leukemia = system: K-562 leukemia
KM12 colon = system: KM12 colon
LOX IMVI melanoma = system: LOX IMVI melanoma
M14 melanoma = system: M14 melanoma
MALME-3M melanoma = system: MALME-3M melanoma
MCF7 breast = system: MCF7 breast
MDA-MB-435 melanoma = system: MDA-MB-435 melanoma
MDA-MB-468 breast = system: MDA-MB-468 breast
MOLT-4 leukemia = system: MOLT-4 leukemia
NCI-H226 lung = system: NCI-H226 lung
NCI-H23 lung = system: NCI-H23 lung
NCI-H322M lung = system: NCI-H322M lung
NCI-H460 NSCLC = system: NCI-H460 NSCLC
NCI-H522 lung = system: NCI-H522 lung
NCI/ADR-RES ovarian = system: NCI/ADR-RES ovarian
OVCAR-3 ovarian = system: OVCAR-3 ovarian
OVCAR-4 ovarian = system: OVCAR-4 ovarian
OVCAR-5 ovarian = system: OVCAR-5 ovarian
OVCAR-8 ovarian = system: OVCAR-8 ovarian
PC-3 prostate = system: PC-3 prostate
RPMI-8226 leukemia = system: RPMI-8226 leukemia
RXF 393 renal = system: RXF 393 renal
SF-268 CNS = system: SF-268 CNS
SF-539 CNS = system: SF-539 CNS
SK-MEL-2 melanoma = system: SK-MEL-2 melanoma
SK-MEL-28 melanoma = system: SK-MEL-28 melanoma
SK-MEL-5 melanoma = system: SK-MEL-5 melanoma
SN12C renal = system: SN12C renal
SNB-19 CNS = system: SNB-19 CNS
SR leukemia = system: SR leukemia
SW-620 colon = system: SW-620 colon
T-47D breast = system: T-47D breast
TK-10 renal = system: TK-10 renal
U251 glioblastoma = system: U251 glioblastoma
UACC-257 melanoma = system: UACC-257 melanoma
UACC-62 melanoma = system: UACC-62 melanoma
UO-31 renal = system: UO-31 renal

## CN[C@@H](C)C(=O)N[C@H](C(=O)N1CCC[C@H]1C(=O)N[C@H]1c2ccccc2C[C@H]1OCC#CC#CCO[C@@H]1Cc2ccccc2[C@@H]1NC(=O)[C@@H]1CCCN1C(=O)[C@@H](NC(=O)[C@H](C)NC)C1CCCCC1)C1CCCCC1
786-0 renal
  GI50: 2.92 µM
  TGI: 11.4 µM
A498 renal
  GI50: 13.5 µM
  TGI: 26.3 µM
A549 NSCLC
  GI50: 5.33 µM
  TGI: 18.6 µM
ACHN renal
  GI50: 15.3 µM
  TGI: 28.6 µM
BT-549 breast
  GI50: < 0.01 µM
  TGI: 1.92 µM
CAKI-1 renal
  GI50: 15.1 µM
  TGI: 28.4 µM
CCRF-CEM leukemia
  GI50: < 0.01 µM
  TGI: 1.31 µM
COLO 205 colon
  GI50: 1.37 µM
  TGI: 2.66 µM
DU-145 prostate
  GI50: 1.04 µM
  TGI: 2.53 µM
HCC-2998 colon
  GI50: 1.62 µM
  TGI: 2.98 µM
HCT-116 colon
  GI50: 1.67 µM
  TGI: 3.12 µM
HCT-15 colon
  GI50: 18 µM
  TGI: 31.9 µM
HL-60(TB) leukemia
  GI50: < 0.01 µM
  TGI: < 0.01 µM
HOP-62 NSCLC
  GI50: 0.0349 µM
  TGI: 0.441 µM
HOP-92 NSCLC
  GI50: < 0.01 µM
  TGI: 0.641 µM
HT29 colon
  GI50: 1.66 µM
  TGI: 3.1 µM
IGROV1 ovarian
  GI50: 1.78 µM
  TGI: 3.46 µM
K-562 leukemia
  GI50: 2.32 µM
  TGI: 6.27 µM
KM12 colon
  GI50: 1.65 µM
  TGI: 3.03 µM
LOX IMVI melanoma
  GI50: 2.12 µM
  TGI: 3.56 µM
M14 melanoma
  GI50: 1.9 µM
  TGI: 3.49 µM
MALME-3M melanoma
  GI50: < 0.01 µM
  TGI: < 0.01 µM
MCF7 breast
  GI50: 1.33 µM
  TGI: 2.62 µM
MDA-MB-435 melanoma
  GI50: < 0.01 µM
  TGI: 2.03 µM
MDA-MB-468 breast
  GI50: < 0.01 µM
  TGI: < 0.01 µM
MOLT-4 leukemia
  GI50: 1.48 µM
  TGI: 2.8 µM
NCI-H226 lung
  GI50: 6.96 µM
  TGI: 19.8 µM
NCI-H23 lung
  GI50: < 0.01 µM
  TGI: 0.0576 µM
NCI-H322M lung
  GI50: 2.25 µM
  TGI: 5.31 µM
NCI-H460 NSCLC
  GI50: 1.77 µM
  TGI: 3.19 µM
NCI-H522 lung
  GI50: < 0.01 µM
  TGI: 1.02 µM
NCI/ADR-RES ovarian
  GI50: 4.65 µM
  TGI: 35.5 µM
OVCAR-3 ovarian
  GI50: 1.32 µM
  TGI: 2.64 µM
OVCAR-4 ovarian
  GI50: < 0.01 µM
  TGI: < 0.01 µM
OVCAR-5 ovarian
  GI50: 12.3 µM
  TGI: 24.8 µM
OVCAR-8 ovarian
  GI50: 0.135 µM
  TGI: 2.22 µM
PC-3 prostate
  GI50: 1.81 µM
  TGI: 3.85 µM
RPMI-8226 leukemia
  GI50: < 0.01 µM
  TGI: 1.1 µM
RXF 393 renal
  GI50: < 0.01 µM
  TGI: < 0.01 µM
SF-268 CNS
  GI50: 1.67 µM
  TGI: 3.04 µM
SF-539 CNS
  GI50: 1.64 µM
  TGI: 3.01 µM
SK-MEL-2 melanoma
  GI50: < 0.01 µM
  TGI: < 0.01 µM
SK-MEL-28 melanoma
  GI50: 1.37 µM
  TGI: 2.67 µM
SK-MEL-5 melanoma
  GI50: < 0.01 µM
  TGI: 0.0446 µM
SN12C renal
  GI50: 2.14 µM
  TGI: 3.61 µM
SNB-19 CNS
  GI50: 1.56 µM
  TGI: 2.97 µM
SR leukemia
  GI50: 0.0188 µM
  TGI: 1.05 µM
SW-620 colon
  GI50: 2.16 µM
  TGI: 4.3 µM
T-47D breast
  GI50: 1.73 µM
  TGI: 3.17 µM
TK-10 renal
  GI50: 14 µM
  TGI: 27 µM
U251 glioblastoma
  GI50: 1.49 µM
  TGI: 2.82 µM
UACC-257 melanoma
  GI50: 1.52 µM
  TGI: 2.85 µM
UACC-62 melanoma
  GI50: 1.65 µM
  TGI: 3.01 µM
UO-31 renal
  GI50: 19.5 µM
  TGI: 33.7 µM
